These results are taken from patent US20260183303A1, “PDK1 REGULATORY COMPOUND AND COMPOSITION CONTAINING THE SAME” (PROVIBIO CO., LTD., priority 2024, published 2026).

The assay relates to T cells isolated from mouse spleens. The experiment in a line: T cell proliferation inhibition (CFSE flow cytometry, anti-CD3/anti-CD28 activation). In kind it is cell-based, C57BL/6 mice. The settings on record: mouse spleen T cells, CD3/CD28 activated, cultured three days. The procedure: To verify the T cell proliferation inhibitory effect of the compounds according to the present invention, the following experiment was performed based on flow cytometry analysis using carboxyfluorescein diacetate succinimidyl ester (CFSE), a fluorescent dye that binds to intracellular molecules via covalent bonds.
Spleens were extracted from 7-week-old C57BL/6 mice, ground, and then separated into single cells using a strainer ([…], SPL). Red blood cells were removed using ACK (Ammonium-Chloride-Potassium) lysis buffer to isolate white blood cells.
Finally, using a MACS Magnetic Stand and LS column, T cells were isolated from the spleen.
The T cells isolated from the spleen were resuspended in 1 mL of free medium (RPMI-1640+200 U/mL penicillin+200 μg/mL streptomycin), and 0.3 μL of CFSE (10 mM) was added. The mixture was incubated at 37° C. for 5 minutes.
Free medium (10 mL) was added to stop the reaction, and the cells were centrifuged to obtain the cell pellet.
RPMI 1640 medium containing 10% FBS, 100 U/mL penicillin, 100 μg/mL streptomycin, and resuspended the cells. The cells were then seeded into a 96-well plate at a density of 2×10^5 cells per well and activated with CD3 and CD28 antibodies ([…]) to activate T cells.
The compound diluted in DMSO was added at concentrations of 10 nM, 100 nM, 1 μM, […], 30 μM, and 50 µM, with three wells per concentration, and cultured at 37° C. and 5% CO2 for three days. The cells were then analyzed using a FACS Canto instrument.
The proliferation inhibition rate (%) was calculated using the following formula: […]

Take `Nc1ncccc1C(=O)NCCCCCCCCCCCCN1CCC2CCCCC2C1` (stereo not shown) [Compound 16, 2-Amino-N-(12-(Octahydroisoquinolin-2(1H)-Yl)Dodecyl) Nicotinamide]: the “Proliferation inhibition rate (%)” value by setting is: (1 μM) 100.00%; (10 μM) 100.00%; (30 μM) 100.00%; (50 μM) 100.00%.
Take `Nc1ncccc1C(=O)NCCCCCCCCCCCCN1CCc2ccccc2C1` [Compound 17, 2-Amino-N-(12-(3,4-dihydroisoquinolin-2(1H)-yl)dodecyl) nicotinamide]: the “Proliferation inhibition rate (%)” value (10 nM, listed as PBK-2024-004, 0.01 µM) is on record as 0.00%; the “Proliferation inhibition rate (%)” value (100 nM, listed as PBK-2024-004, 0.1 µM) was −14.00%; the “Proliferation inhibition rate (%)” value (1 μM, listed as PBK-2024-004, 1 µM) is 100.00%; the “Proliferation inhibition rate (%)” value (10 μM, listed as PBK-2024-004, 10 µM) came to 100.00%.
For the molecule `CC1(C)CCN(CCCCCCCCCCCCNC(=O)c2cccnc2N)C1` [Compound 22, 2-Amino-N-(12-(3,3-dimethylpyrrolidin-1-yl)dodecyl) nicotinamide], the “Proliferation inhibition rate (%)” value is, setting by setting: (10 nM) −0.80%; (100 nM) 100.00%; (1 μM) 100.00%; (10 μM) 100.00%; (30 μM) 100.00%; (50 μM) 100.00%.
With `COC1CCN(CCCCCCCCCCCCNC(=O)c2cccnc2N)C1` (stereo not shown) [Compound 32, 2-Amino-N-(12-(3-methoxypyrrolidin-1-yl)dodecyl) nicotinamide], the “Proliferation inhibition rate (%)” value (10 nM, listed as PBK-2024-024, 0.01 µM) was 0.29% and the “Proliferation inhibition rate (%)” value (50 μM) is 100.00%.
For the molecule `CN(CCCCCCCCCCCCNC(=O)c1cccnc1N)C1CCCCC1` [Compound 34, 2-Amino-N-(12-(cyclohexyl(methyl)amino)dodecyl) nicotinamide], the “Proliferation inhibition rate (%)” value worked out at 100.00% (100 nM); 100.00% (1 μM); 100.00% (10 μM); 100.00% (30 μM); 100.00% (50 μM).
In the case of `CC1CN(CCCCCCCCCCCCNC(=O)c2cccnc2N)C(C)CN1.Cl` (stereo not shown) [Compound 36, 2-Amino-N-(12-(2,5-dimethylpiperazin-1-yl)dodecyl) nicotinamide hydrochloride], the “Proliferation inhibition rate (%)” value by setting is: (100 nM) 100.00%; (1 μM) 100.00%; (10 μM) 100.00%; (30 μM) 100.00%; (50 μM) 100.00%.
As for `C[C@H]1CNCCN1CCCCCCCCCCCCNC(=O)c1cccnc1N.Cl` [Compound 37, (S)-2-Amino-N-(12-(2-methylpiperazin-1-yl)dodecyl) nicotinamide hydrochloride], the “Proliferation inhibition rate (%)” value (1 μM) was found to be 100.00%, the “Proliferation inhibition rate (%)” value (10 μM) is on record as 100.00%, the “Proliferation inhibition rate (%)” value (30 μM) is 100.00% and the “Proliferation inhibition rate (%)” value (50 μM) is reported as 100.00%.
Consider `CC1CCCN(CCCCCCCCCCCCNC(=O)c2cccnc2N)CC1` (stereo not shown) [Compound 39, 2-Amino-N-(12-(4-methylazepan-1-yl)dodecyl) nicotinamide], for which the “Proliferation inhibition rate (%)” value is, setting by setting: (100 nM) 100.00%; (1 μM) 100.00%; (10 μM) 100.00%; (30 μM) 100.00%; (50 μM) 100.00%.
Take `CC1CN(C)C(CCCCCCCCCCCCNc2ccc3cncnc3n2)N1` (stereo not shown) [Compound 43]: the “Proliferation inhibition rate (%)” value is, setting by setting: (100 nM) 100.00%; (1 μM) 100.00%; (10 μM) 100.00%; (30 μM) 100.00%; (50 μM) 100.00%.
Take `Nc1ncccc1C(=O)NCCCCCCCCCCCCN1CCC(O)CC1` [Compound 48, 2-Amino-N-(12-(4-hydroxypiperidin-1-yl)dodecyl) nicotinamide]: the “Proliferation inhibition rate (%)” value amounted to 100.00% (100 nM); 100.00% (1 μM); 100.00% (10 μM); 100.00% (30 μM); 100.00% (50 μM).
As for `CN(CCCCCCCCCCCCNC(=O)c1cccnc1N)C(C)(C)C` [Compound 53, 2-Amino-N-(12-(tert-butyl(methyl)amino)dodecyl) nicotinamide], the “Proliferation inhibition rate (%)” value runs as follows: (100 nM) 100.00%; (1 μM) 100.00%; (10 μM) 100.00%; (30 μM) 100.00%; (50 μM) 100.00%.
On to `Nc1ncccc1C(=O)NCCCCCCCCCCCCN1CCN(CCO)CC1` [Compound 54, 2-Amino-N-(12-(4-(2-hydroxyethyl)piperazin-1-yl)dodecyl) nicotinamide], for which the “Proliferation inhibition rate (%)” value is, setting by setting: (100 nM) 100.00%; (1 μM) 100.00%; (10 μM) 100.00%; (30 μM) 100.00%; (50 μM) 100.00%.
Turning to `COC1CCN(CCCCCCCCCCCCNC(=O)c2cccnc2N)CC1` [Compound 94, 2-amino-N-(12-(4-methoxypiperidin-1-yl)dodecyl) nicotinamide], the “Proliferation inhibition rate (%)” value by setting is: (100 nM) 100.00%; (1 μM) 100.00%; (10 μM) 100.00%; (30 μM) 100.00%; (50 μM) 100.00%.
In the case of `Nc1ncccc1C(=O)NCCCCCCCCCCCCN1CCN(C=O)CC1` [Compound 97, 2-amino-N-(12-(4-formylpiperazin-1-yl)dodecyl) nicotinamide], the “Proliferation inhibition rate (%)” value (1 μM) is given as 100.00%, the “Proliferation inhibition rate (%)” value (10 μM) was determined as 100.00%, the “Proliferation inhibition rate (%)” value (30 μM) is recorded as 100.00% and the “Proliferation inhibition rate (%)” value (50 μM) was 100.00%.
As for `Nc1ncccc1C(=O)NCCCCCCCCCCCCN1CCN(C(=O)C2CC2)CC1` [Compound 99, 2-amino-N-(12-(4-(cyclopropanecarbonyl)piperazin-1-yl)dodecyl) nicotinamide], the “Proliferation inhibition rate (%)” value runs as follows: (10 nM) −12.13%; (100 nM) 100.00%; (1 μM) 100.00%; (10 μM) 100.00%; (30 μM) 100.00%; (50 μM) 100.00%.
Consider `CC(C)(C)OC(=O)NC1CCN(CCCCCCCCCCCCNC(=O)c2cccnc2N)CC1` [Compound 101, tert-Butyl (1-(12-(2-aminonicotinamido)dodecyl)piperidin-4-yl) carbamate], for which the “Proliferation inhibition rate (%)” value is given as −0.15% (10 nM); 100.00% (100 nM); 100.00% (1 μM); 100.00% (10 μM); 100.00% (30 μM); 100.00% (50 μM).
As to `CC(C)N1CCN(CCCCCCCCCCCCNC(=O)c2cccnc2N)CC1` [Compound 104, 2-Amino-N-(12-(4-isopropylpiperazin-1-yl)dodecyl) nicotinamide], the “Proliferation inhibition rate (%)” value (10 nM) is listed as 100.00%; the “Proliferation inhibition rate (%)” value (100 nM) was found to be 100.00%; the “Proliferation inhibition rate (%)” value (1 μM) worked out at 100.00%; the “Proliferation inhibition rate (%)” value (10 μM) came to 100.00%; the “Proliferation inhibition rate (%)” value (30 μM) is given as 100.00%; the “Proliferation inhibition rate (%)” value (50 μM) turned out to be 100.00%.
`Nc1ncccc1C(=O)NCCCCCCCCCCCCn1ccc2c(Cl)c(I)cnc21` [Compound 109, 2-Amino-N-(12-(4-chloro-5-iodo-1H-pyrrolo[2,3-b]pyridin-1-yl)dodecyl) nicotinamide]: the “Proliferation inhibition rate (%)” value is 0.15% (10 nM); 8.48% (100 nM); 20.91% (1 μM); 100.00% (10 μM); 100.00% (30 μM); 100.00% (50 μM).
